We go through 71 molecules from patent publication US8329704B2, “Substituted pyrazinone derivatives for use in MCH-1 mediated diseases” (Janssen Pharmaceutica, N.V., priority 2005, dated 2012).

The structures appear in SMILES notation.

For the assay, the target named is T1, human MCH-1 receptor (Homo sapiens, UniProt Q99705).
T1 construct: expressed in transfected cells
T1 sequence (Q99705 whole entry): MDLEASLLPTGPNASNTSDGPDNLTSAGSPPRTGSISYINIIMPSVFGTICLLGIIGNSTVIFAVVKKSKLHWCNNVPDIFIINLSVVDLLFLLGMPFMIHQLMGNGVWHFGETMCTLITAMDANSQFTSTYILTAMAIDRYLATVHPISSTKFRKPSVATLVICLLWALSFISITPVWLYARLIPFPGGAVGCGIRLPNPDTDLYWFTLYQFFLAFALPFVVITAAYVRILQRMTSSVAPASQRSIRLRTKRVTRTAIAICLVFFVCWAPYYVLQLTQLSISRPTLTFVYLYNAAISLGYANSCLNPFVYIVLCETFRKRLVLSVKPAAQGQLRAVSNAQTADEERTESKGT
Description: Ca2+ mobilization experiment for the MCH-1 receptor (FLIPR), inhibition of MCH-induced Ca2+ mobilization. The class given is cell-based. As to conditions: CHO cells stably expressing human MCH-1 receptor, inhibition of MCH-induced Ca2+ response, read-out: MCH-1 pIC50 (converted). Here is the method: The interaction of the compounds of Formula (I) with MCH-1 receptors was assessed in in vitro transient calcium (Ca^2+) mobilization assays in the fluorimetric imaging plate reader (FLIPR) format (Sullivan et al. 1999, Methods Mol Biol 114:125-133). In general, the natural agonist (MCH) is incubated with cells expressing the MCH-1 receptor, which elicits a concentration-dependent transient mobilization of Ca^2+ from internal stores. The interaction of the test compounds with the receptor is assessed in competition experiments. Various concentrations of the test compound are added to the incubation mixture containing the receptor-expressing cells and a submaximal concentration of MCH. The test compound in proportion to its antagonist potency and its concentration inhibits MCH-induced Ca^2+ mobilization.
Chinese Hamster ovary cells (CHO) stably expressing the human MCH-1 receptor are grown in a 1:1 mixture of Dulbecco's Modified Eagles Medium (DMEM) and HAM's F12 medium including Glutamax™ (Invitrogen), supplemented with 10% heat-inactivated fetal bovine serum and 400 μg/ml geneticin.
Twenty-four hours before the experiment, MCH-1 receptor-expressing CHO cells are seeded in 20 μl (5,000 cells per well) into 384-well black wall, clear bottom microtiter plates (Costar). On the day of the experiment, 20 μl per well calcium assay kit containing 10 mM probenicide (Molecular Devices) is added. Cells are loaded for 90 min at 37° C. and 5% CO2 in a cell culture incubator. After loading, 20 μl of serial dilutions of the test compound are added and cells are further incubated for 20 min at room temperature in the dark. After 20 min, 20 μl of a submaximal MCH concentration is added and changes in intracellular calcium are recorded directly in a FLIPR III apparatus (Molecular devices).
Data from assays in the presence of compound were calculated as a percentage of total Ca^2+-responses measured in the absence of test compound. Inhibition curves, plotting percent of total Ca^2+-responses versus the log value of the concentration of the test compound, were automatically generated, and sigmoidal inhibition curves were fitted using non-linear regression. The pIC50 values of test compounds were derived from individual curves.
(Calcium assays in cells follow changes in intracellular calcium, usually with a dye or a luminescent sensor.)
In the case of `COc1cc(-n2ccnc(NCCOc3ccccc3)c2=O)ccc1OCCCN1CCC(O)C1` (centres unmarked) [1-76], the IC50 was 126 nM. Consider `COc1cc(-n2ccnc(NCCOc3ccccc3)c2=O)ccc1OCCCN1CCCCC1` [1-77], for which the IC50 is 50.1 nM. Turning to `COc1cc(-n2ccnc(NCCOc3ccccc3)c2=O)ccc1OCCCN1CCCC(CO)C1` (centres unmarked) [1-78], the IC50 was 79.4 nM.

Turning to `COc1cc(-n2ccnc(NCCOc3ccccc3)c2=O)ccc1OCCCN1CCC(F)(F)CC1` [1-79], the IC50 was 39.8 nM.

`COc1cc(-n2ccnc(NCCOc3ccccc3)c2=O)ccc1OCCCN1CCOCC1` [1-80]: the IC50 is 63.1 nM.

As for `COc1cc(-n2ccnc(NCCOc3ccccc3)c2=O)ccc1OCC(C)N1CCCC1` (centres unmarked) [1-82], the IC50 was 63.1 nM. Turning to `COc1cc(-n2ccnc(CCCc3ccccc3)c2=O)ccc1OCCN1CCCC1` [2-01], the IC50 was 126 nM.

For `O=c1c(NCCc2ccccc2)nccn1-c1ccc(OCCN2CCCC2)cc1` [2-02], the IC50 was 126 nM. `COc1cc(-n2ccnc(N(C)CCc3ccccc3)c2=O)ccc1OCCN1CCCC1` [2-05]: the IC50 is 501 nM. As for `COc1cc(-n2ccnc(OCCc3ccccc3)c2=O)ccc1OCCN1CCCC1` [2-06], the IC50 is 79.4 nM. As for `COc1cc(-n2ccnc(CCOc3ccccc3)c2=O)ccc1OCCN1CCCC1` [2-07], the IC50 was 79.4 nM.

On to `COc1cc(-n2ccnc(CCCOc3ccccc3)c2=O)ccc1OCCN1CCCC1` [2-08], for which the IC50 is 158 nM. With `O=c1c(SCCc2ccccc2)nccn1-c1ccc(OCCN2CCCC2)cc1` [2-10], the IC50 is 31.6 nM. Regarding `O=c1c(NCCCOc2ccccc2)nccn1-c1ccc(OCCN2CCCC2)cc1` [2-12], the IC50 was 100 nM.

With `COc1cc(-n2ccnc(NCCCOc3ccccc3)c2=O)ccc1OCCN1CCCC1` [2-13], the IC50 is 15.8 nM. For the molecule `COc1cc(-n2ccnc(OCCOc3ccccc3)c2=O)ccc1OCCN1CCCC1` [2-14], the IC50 was 100 nM.

Consider `O=c1c(NCCc2ccc(F)cc2)nccn1-c1ccc(OCCN2CCCC2)cc1` [2-15], for which the IC50 is 63.1 nM. To `COc1cc(-n2ccnc(NCCc3ccc(F)cc3)c2=O)ccc1OCCN1CCCC1` [2-16] belongs 25.1 nM; to `O=c1c(NCCOc2ccc(F)cc2)nccn1-c1ccc(OCCN2CCCC2)cc1` [2-17], 2000 nM. In the case of `COc1cc(-n2ccnc(NCCCOc3ccc(F)cc3)c2=O)ccc1OCCN1CCCC1` [2-18], the IC50 is 39.8 nM. With `COc1cc(-n2ccnc(NCCc3ccccc3Br)c2=O)ccc1OCCN1CCCC1` [2-19], the IC50 is 316 nM.

Turning to `COc1cc(-n2ccnc(NCCc3cccc(Br)c3)c2=O)ccc1OCCN1CCCC1` [2-20], the IC50 was 31.6 nM.

As to `COc1cc(-n2ccnc(NCCc3ccc(Br)cc3)c2=O)ccc1OCCN1CCCC1` [2-21], the IC50 is 39.8 nM. For `COc1cc(-n2ccnc(NCCc3ccccc3Cl)c2=O)ccc1OCCN1CCCC1` [2-22], the IC50 is 100 nM. Consider `COc1cc(-n2ccnc(NCCc3cccc(Cl)c3)c2=O)ccc1OCCN1CCCC1` [2-23], for which the IC50 is 50.1 nM. Regarding `COc1cc(-n2ccnc(NCCc3ccc(Cl)cc3)c2=O)ccc1OCCN1CCCC1` [2-24], the IC50 was 25.1 nM. For `COc1cc(-n2ccnc(SCCc3cccc(Cl)c3)c2=O)ccc1OCCN1CCCC1` [2-25], the IC50 is 126 nM. For `O=c1c(NCCOc2ccccc2Cl)nccn1-c1ccc(OCCN2CCCC2)cc1` [2-27], the IC50 was 251 nM. In the case of `COc1cc(-n2ccnc(NCCOc3ccccc3Cl)c2=O)ccc1OCCN1CCCC1` [2-28], the IC50 was 79.4 nM. `COc1cc(-n2ccnc(NCCCOc3ccccc3Cl)c2=O)ccc1OCCN1CCCC1` [2-29]: the IC50 was 63.1 nM. As to `COc1cc(-n2ccnc(NCCOc3cccc(Cl)c3)c2=O)ccc1OCCN1CCCC1` [2-30], the IC50 was 50.1 nM.

As for `COc1cc(-n2ccnc(NCCCOc3cccc(Cl)c3)c2=O)ccc1OCCN1CCCC1` [2-31], the IC50 was 25.1 nM. Take `COc1cc(-n2ccnc(NCCCOc3ccc(Cl)cc3)c2=O)ccc1OCCN1CCCC1` [2-32]: the IC50 is 63.1 nM.

As for `COc1cc(-n2ccnc(NCCOc3ccccc3C)c2=O)ccc1OCCN1CCCC1` [2-33], the IC50 is 200 nM. For `COc1cc(-n2ccnc(NCCc3ccc(C(F)(F)F)cc3)c2=O)ccc1OCCN1CCCC1` [2-34], the IC50 is 100 nM. Regarding `COc1cccc(CCNc2nccn(-c3ccc(OCCN4CCCC4)c(OC)c3)c2=O)c1` [2-35], the IC50 was 31.6 nM. As for `COc1ccc(CCNc2nccn(-c3ccc(OCCN4CCCC4)c(OC)c3)c2=O)cc1` [2-36], the IC50 is 50.1 nM. As for `COc1cccc(OCCCNc2nccn(-c3ccc(OCCN4CCCC4)c(OC)c3)c2=O)c1` [2-37], the IC50 was 398 nM. To `COc1ccc(OCCCNc2nccn(-c3ccc(OCCN4CCCC4)c(OC)c3)c2=O)cc1` [2-38] belongs 2000 nM.

Regarding `COc1cc(-n2ccnc(NCCc3ccc(Cl)cc3Cl)c2=O)ccc1OCCN1CCCC1` [2-39], the IC50 was 200 nM. Consider `COc1cc(-n2ccnc(NCCOc3ccc(Cl)cc3Cl)c2=O)ccc1OCCN1CCCC1` [2-40], for which the IC50 is 200 nM.

Turning to `COc1cc(-n2ccnc(NCCCOc3ccc(Cl)cc3Cl)c2=O)ccc1OCCN1CCCC1` [2-41], the IC50 is 631 nM. Regarding `COc1ccc(CCNc2nccn(-c3ccc(OCCN4CCCC4)c(OC)c3)c2=O)cc1Cl` [2-42], the IC50 was 251 nM. Consider `COc1cc(-n2ccnc(NCCc3ccc(C(F)(F)F)cc3F)c2=O)ccc1OCCN1CCCC1` [2-43], for which the IC50 is 794 nM. For the molecule `COc1cc(-n2ccnc(NCCCOc3cccc(C#N)c3)c2=O)ccc1OCCN1CCCC1` [2-44], the IC50 is 79.4 nM. Turning to `CN(C1CCN(c2ccc(-n3ccnc(NCCc4ccccc4)c3=O)cc2)C1)S(C)(=O)=O` (centres unmarked) [3-01], the IC50 is 100 nM. With `CNC1CCN(c2ccc(-n3ccnc(NCCc4ccccc4)c3=O)cc2)C1` (centres unmarked) [3-02], the IC50 is 50.1 nM. Take `CC(=O)N(C)C1CCN(c2ccc(-n3ccnc(NCCc4ccccc4)c3=O)cc2)C1` (centres unmarked) [3-03]: the IC50 is 63.1 nM. Regarding `CC(C)C(=O)N(C)C1CCN(c2ccc(-n3ccnc(NCCc4ccccc4)c3=O)cc2)C1` (centres unmarked) [3-04], the IC50 is 100 nM. `CN(C(=O)OC(C)(C)C)C1CCN(c2ccc(-n3ccnc(NCCc4ccccc4)c3=O)cc2)C1` (centres unmarked) [3-05]: the IC50 is 158 nM. `O=c1c(NCCc2ccccc2)nccn1-c1ccc(N2CCNCC2)cc1` [3-06]: the IC50 was 100 nM. On to `CC(C)(C)OC(=O)N1CCN(c2ccc(-n3ccnc(NCCc4ccccc4)c3=O)cc2)CC1` [3-07], for which the IC50 is 501 nM. For `COc1cc(-n2ccnc(NCCc3ccccc3)c2=O)ccc1N1CCC(N)C1` (centres unmarked) [3-08], the IC50 was 39.8 nM. `COc1cc(-n2ccnc(NCCc3ccccc3)c2=O)ccc1N1CCC(NC(C)=O)C1` (centres unmarked) [3-09]: the IC50 was 63.1 nM.

In the case of `COc1cc(-n2ccnc(NCCc3ccccc3)c2=O)ccc1N1CCC(N(C)C(C)=O)C1` (centres unmarked) [3-10], the IC50 was 79.4 nM. To `COc1cc(-n2ccnc(NCCc3ccccc3)c2=O)ccc1N1CCN(C)CC1` [3-11] belongs 39.8 nM; to `CNC1CCN(c2ccc(-n3ccnc(NCCc4ccccc4)c3=O)cc2OC)C1` (centres unmarked) [3-12], 63.1 nM.

Turning to `COc1cc(-n2ccnc(NCCc3ccccc3)c2=O)ccc1N1CCC(N(C)C)C1` (centres unmarked) [3-13], the IC50 was 50.1 nM. To `CCN(C)C1CCN(c2ccc(-n3ccnc(NCCc4ccccc4)c3=O)cc2OC)C1` (centres unmarked) [3-14] belongs 50.1 nM; to `CCCN(C)C1CCN(c2ccc(-n3ccnc(NCCc4ccccc4)c3=O)cc2OC)C1` (centres unmarked) [3-15], 50.1 nM; to `COc1cc(-n2ccnc(NCCc3ccccc3)c2=O)ccc1N1CCC(NC2CC2)C1` (centres unmarked) [3-16], 50.1 nM. Turning to `COc1cc(-n2ccnc(NCCc3ccccc3)c2=O)ccc1N1CCC(N(C)C2CC2)C1` (centres unmarked) [3-17], the IC50 was 79.4 nM. In the case of `COc1cc(-n2ccnc(NCCc3ccccc3)c2=O)ccc1N1CCC(N(C2CC2)C2CC2)C1` (centres unmarked) [3-18], the IC50 is 158 nM.

On to `COc1cc(-n2ccnc(NCCc3ccccc3)c2=O)ccc1N1CCCN(C)CC1` [3-19], for which the IC50 is 126 nM.

For the molecule `COc1cc(-n2ccnc(NCCc3ccccc3)c2=O)ccc1N1CCC(N2CCC(O)C2)C1` (centres unmarked) [3-20], the IC50 is 126 nM. For `COc1cc(-n2ccnc(NCCc3ccccc3)c2=O)ccc1C=CCN1CCCC1` [3-22], the IC50 was 31.6 nM. As for `COc1cc(-n2ccnc(NCCc3ccccc3)c2=O)ccc1C=CCN1CCOCC1` [3-23], the IC50 is 39.8 nM. With `COc1cc(-n2ccnc(NCCc3ccccc3)c2=O)ccc1NC1CCNC1` (centres unmarked) [3-24], the IC50 was 200 nM. Regarding `COc1cc(-n2ccnc(NCCc3ccccc3)c2=O)ccc1NC1CCN(C)C1` (centres unmarked) [3-25], the IC50 is 63.1 nM. Regarding `CCCN1CCC(Nc2ccc(-n3ccnc(NCCc4ccccc4)c3=O)cc2OC)C1` (centres unmarked) [3-26], the IC50 is 39.8 nM.

In the case of `COc1cc(-n2ccnc(NCCc3ccccc3)c2=O)ccc1NC1CC2COCC(C1)N2` (centres unmarked) [3-27], the IC50 is 79.4 nM.
